The record followed here is patent US20110207926A1, “NOVEL DIHYDROTRIAZINE DERIVATIVE” (HAMARI CHEMICALS, LTD., priority 2008, published 2011).

A word on the MBC: it is the lowest tested concentration that kills the bacteria rather than only halting them.

Structures are written as SMILES. Where two headings read alike, the source gives them in different places.

One data set concerns E. coli ATCC 25922. In words: Bactericidal activity test (MBC measurement). The data set is classed as cell-based, Escherichia coli. The procedure: (§1) Each strain was cultured in Trypticase Soy agar medium for 18 to 20 hr, suspended in 0.1% peptone saline, and prepared to OD 600 nm, 1.0 McFarland. The suspension was further diluted with 0.1% peptone saline to give a test bacteria solution (targeted value; 2×10^7 CFU/mL).
(§2) At 0.5, 1 and 3 min from the start of the reaction, a part of the reaction mixture was sampled and mixed with an equal amount of a neutralizing agent (10% Tween 80, 3% lecithin/aqueous solution) to terminate the bactericidal reaction. The reaction mixture was inoculated to a 96 well microplate dispensed with 180 μL of Tripticase Soy liquid medium in advance, and statically cultured at 37° C. for 20 to 24 hr. Thereafter, the presence or absence of growth was visually evaluated, and the minimum concentration at which growth was not observed was taken as the minimal bactericidal concentration (MBC value) of each action time. The numerical values in the Tables show MBC, the unit is μg/mL, S. aureus means Staphylococcus aureus, MRSA means methicillin-resistant Staphylococcus aureus, E. coli means Escherichia coli, and P. aeruginosa means Pseudomonas aeruginosa.

The next data set concerns MRSA ATCC 33591. Put plainly: Bactericidal activity test (MBC measurement). The data set is classed as cell-based, methicillin-resistant Staphylococcus aureus. The procedure: as §1, §2
A further data set has as its system P. aeruginosa ATCC 27853. Put plainly: Bactericidal activity test (MBC measurement). The data set is classed as cell-based, Pseudomonas aeruginosa. The procedure: as §1, §2
A further data set concerns P. aeruginosa PAO-1. Put plainly: Bactericidal activity test (MBC measurement). The data set is classed as cell-based, Pseudomonas aeruginosa. The method, then:
as §1, §2

The next data set deals with S. aureus ATCC 6538. In words: Bactericidal activity test (MBC measurement). The data set is classed as cell-based, Staphylococcus aureus. The procedure: as §1, §2
Data set [1] in a line: Skin sensitivity test, LLNA-BrdU method (lymph node weight). The data set is classed as in vivo. Particulars: 5 w/v % in acetone/olive oil 4:1, transdermal to auricle once a day for 3 days, mice. The procedure:
For application of an external bactericidal/disinfectant agent to the skin, the sensitivity (allergenicity) is desirably as small as possible. […] The sensitivity was evaluated by a Local lymph node assay (LLNA) method using Bromodeoxyuridine (BrdU). In this test, measurement of the amount of BrdU uptaken by the lymph node using an ELISA kit was not performed, and the evaluation was based solely on the weight increase of the lymph node.
8-Week-old female CBA/JN Crlj mice were grouped (3 per group) according to the adequate strafication method based on the body weight (about 20 g) on the first day of administration. A test substance was prepared to 5 w/v % for each test substance by using a mixed solution of acetone and olive oil (v/v=4:1, A00). This was repeatedly administered transdermally to the auricle of the mice at 25 μL/auricle (50 for both auricles) once a day for 3 days. Two days after the final administration, BrdU 10 mg/mL (0.5 mL/mouse) was intraperitoneally administered. Three days after the final transdermal administration (next day of BrdU administration), carbon dioxide was given by inhalation to a comfortable death, and the auricle lymph node was isolated and the weight thereof was measured.

Setting [2] is: Escherichia coli, ATCC25922, 0.5 min, E. coli ATCC 25922, action time 0.5 min, read-out: MBC.
[3] abbreviates: Staphylococcus aureus, 0.5 min, MRSA ATCC 33591, action time 0.5 min, read-out: MBC.
The mark [4] stands for this setting: Pseudomonas aeruginosa, ATCC27853, 0.5 min, P. aeruginosa ATCC 27853, action time 0.5 min, read-out: MBC.
Setting [5] is: Pseudomonas aeruginosa, PAO1, 0.5 min, P. aeruginosa PAO-1, action time 0.5 min, read-out: MBC.
[6] abbreviates: Staphylococcus aureus, ATCC6538, 0.5 min, S. aureus ATCC 6538, action time 0.5 min, read-out: MBC.
The mark [7] stands for this setting: Escherichia coli, ATCC25922, 1 min, E. coli ATCC 25922, action time 1 min, read-out: MBC.
Where [8] appears, read: Escherichia coli, ATCC25922, 0.05 h, E. coli ATCC 25922, action time 3 min, read-out: MBC.
Setting [9] is: Staphylococcus aureus, 1 min, MRSA ATCC 33591, action time 1 min, read-out: MBC.
[10] abbreviates: Staphylococcus aureus, 0.05 h, MRSA ATCC 33591, action time 3 min, read-out: MBC.
[11] abbreviates: Pseudomonas aeruginosa, ATCC27853, 1 min, P. aeruginosa ATCC 27853, action time 1 min, read-out: MBC.
Where [12] appears, read: Pseudomonas aeruginosa, ATCC27853, 0.05 h, P. aeruginosa ATCC 27853, action time 3 min, read-out: MBC.
[13] abbreviates: Pseudomonas aeruginosa, PAO1, 1 min, P. aeruginosa PAO-1, action time 1 min, read-out: MBC.
Setting [14] is: Pseudomonas aeruginosa, PAO1, 0.05 h, P. aeruginosa PAO-1, action time 3 min, read-out: MBC.
Setting [15] is: Staphylococcus aureus, ATCC6538, 1 min, S. aureus ATCC 6538, action time 1 min, read-out: MBC.
Where [16] appears, read: Staphylococcus aureus, ATCC6538, 0.05 h, S. aureus ATCC 6538, action time 3 min, read-out: MBC.

With `CC(=O)O.CCCCCCCCN(C)C1=NC(C)(C)NC(N(C)Cc2ccccc2)=N1` [Example 6, N^4-octyl-N^4-methyl-1,6-dihydro-6,6-dimethyl-N^2-benzyl-N^2-methyl-1,3,5-triazine-2,4-diamine acetate], the minimal bactericidal concentration (MBC) in the data set on E. coli ATCC 25922 (setting [2]) was 25 µg/mL; in the data set on MRSA ATCC 33591 (setting [3]), 200 µg/mL; in the data set with P. aeruginosa ATCC 27853 (setting [4]) it was 25 µg/mL; with P. aeruginosa PAO-1 (setting [5]), 25 µg/mL; with S. aureus ATCC 6538 (setting [6]), above 200 µg/mL.
Consider `CCCCCCCCN(C)C(=N)NC(=N)NCc1ccc(Cl)c(Cl)c1.Cl` [Example 28, N^5-octyl-N^5-methyl-N^1-(3,4-dichlorobenzyl)biguanide hydrochloride], for which the minimal bactericidal concentration (MBC) in the data set on E. coli ATCC 25922 (setting [2]) is 6.25 µg/mL; in the data set with E. coli ATCC 25922 (setting [7]), 6.25 µg/mL; with E. coli ATCC 25922 (setting [8]) it was 6.25 µg/mL; in the data set with MRSA ATCC 33591 (setting [3]), 50 µg/mL; in the data set with MRSA ATCC 33591 (setting [9]), 12.5 µg/mL; in the data set on MRSA ATCC 33591 (setting [10]), 12.5 µg/mL. The minimal bactericidal concentration (MBC) in the data set on P. aeruginosa ATCC 27853 (setting [4]) stood at 25 µg/mL; with P. aeruginosa ATCC 27853 (setting [11]) it was 25 µg/mL; in the data set with P. aeruginosa ATCC 27853 (setting [12]) it was 12.5 µg/mL; with P. aeruginosa PAO-1 (setting [5]), 12.5 µg/mL; with P. aeruginosa PAO-1 (setting [13]) it was 12.5 µg/mL; with P. aeruginosa PAO-1 (setting [14]) it was 6.25 µg/mL. The MBC is 25 µg/mL in the data set with S. aureus ATCC 6538 (setting [6]), 12.5 µg/mL in the data set with S. aureus ATCC 6538 (setting [15]) and 12.5 µg/mL in the data set with S. aureus ATCC 6538 (setting [16]).
In the case of `CCCCCCCCCCNC(=N)NC(=N)N(C)Cc1ccccc1.Cl.Cl` [Example 29, N^5-decyl-N′-methyl-N′-benzyl-biguanide dihydrochloride], the minimum bactericidal concentration (MBC) against E. coli ATCC 25922 (E. coli ATCC 25922, action time 0.5 min) came out at 6.25 µg/mL; against E. coli ATCC 25922 (E. coli ATCC 25922, action time 1 min) it was 6.25 µg/mL; against E. coli ATCC 25922 (E. coli ATCC 25922, action time 3 min), 6.25 µg/mL; in the data set on MRSA ATCC 33591 (MRSA ATCC 33591, action time 0.5 min) it was 200 µg/mL; with MRSA ATCC 33591 (MRSA ATCC 33591, action time 1 min), 200 µg/mL; in the data set on MRSA ATCC 33591 (MRSA ATCC 33591, action time 3 min) it was 50 µg/mL. Moreover, the MBC against P. aeruginosa ATCC 27853 (P. aeruginosa ATCC 27853, action time 0.5 min) stood at 12.5 µg/mL; with P. aeruginosa ATCC 27853 (P. aeruginosa ATCC 27853, action time 1 min), 12.5 µg/mL; with P. aeruginosa ATCC 27853 (P. aeruginosa ATCC 27853, action time 3 min) it was 6.25 µg/mL; in the data set on P. aeruginosa PAO-1 (P. aeruginosa PAO-1, action time 0.5 min), 12.5 µg/mL; against P. aeruginosa PAO-1 (P. aeruginosa PAO-1, action time 1 min), 12.5 µg/mL; in the data set with P. aeruginosa PAO-1 (P. aeruginosa PAO-1, action time 3 min), 6.25 µg/mL. The MBC in the data set with S. aureus ATCC 6538 (S. aureus ATCC 6538, action time 0.5 min) turned out to be 200 µg/mL; in the data set with S. aureus ATCC 6538 (S. aureus ATCC 6538, action time 1 min), 100 µg/mL; with S. aureus ATCC 6538 (S. aureus ATCC 6538, action time 3 min), 12.5 µg/mL.
In the case of `CCCCCCCCCNC(=N)NC(=N)N(C)Cc1ccccc1.Cl.Cl` [Example 30, N^5-nonyl-N^1-methyl-N^1-benzyl-biguanide dihydrochloride], the MBC with E. coli ATCC 25922 (setting [2]) is 12.5 µg/mL; with E. coli ATCC 25922 (setting [7]), 12.5 µg/mL; with E. coli ATCC 25922 (setting [8]) it was 12.5 µg/mL; in the data set with MRSA ATCC 33591 (setting [3]) it was above 200 µg/mL; in the data set on MRSA ATCC 33591 (setting [9]) it was above 100 µg/mL; with MRSA ATCC 33591 (setting [10]), 25 µg/mL. For the same molecule, the minimum bactericidal concentration (MBC) in the data set with P. aeruginosa ATCC 27853 (setting [4]) is 6.25 µg/mL; in the data set on P. aeruginosa ATCC 27853 (setting [11]) it was 6.25 µg/mL; in the data set on P. aeruginosa ATCC 27853 (setting [12]), 6.25 µg/mL; with P. aeruginosa PAO-1 (setting [5]), 12.5 µg/mL; with P. aeruginosa PAO-1 (setting [13]), 6.25 µg/mL; in the data set on P. aeruginosa PAO-1 (setting [14]) it was 6.25 µg/mL. Also, the results for the minimal bactericidal concentration (MBC) in the data set with S. aureus ATCC 6538 (setting [6]), in the data set with S. aureus ATCC 6538 (setting [15]) and with S. aureus ATCC 6538 (setting [16]) were 200 µg/mL, 100 µg/mL and 25 µg/mL, respectively.
As for `CCCCCCCCNC1=NC(C)(C)N=C(NCC2CCCCC2)N1` [Ref. Ex. 3, 4-octylamino-2-cyclohexylmethylamino-1,6-dihydro-6,6-dimethyl-1,3,5-triazine acetate, reference compound], in data set [1], the “SI value (Stimulation index, lymph node weight ratio to solvent group)” value was determined as 4.6.
`CCCCCCCCNC1=NC(C)(C)NC(Nc2ccccc2)=N1` [Ref. Ex. 4, 1,6-dihydro-6,6-dimethyl-4-octylamino-2-phenylamino-1,3,5-triazine acetate, reference compound]: the “SI value (Stimulation index, lymph node weight ratio to solvent group)” value in data set [1] is 4.4.
